Patent US20240360150A1, “ISOINDOLINONE COMPOUNDS AND USES THEREOF” (HANGZHOU GLUBIO PHARMACEUTICAL CO. LTD., priority 2021, published 2024)
Like-named read-outs stand apart in the source and are kept apart here.

Experiments:
Format in all cases: cell-based
HiBiT-tagged SALL4 = molecular target: T1, HiBiT-tagged SALL4 (Homo sapiens, UniProt Q96SW2+Q9UJQ4); assay: Degradation assay for SALL4 (HiBiT tag bioluminescence assay); conditions: HT-1080 SALL4 HiBiT reporter cells; for DC50: read-out: HiBiT SALL4: DC50
T1 construct: expressed in transfected cells; host or cells: HT-1080 (ATCC CCL-121), lentiviral transduction
Description: (§1) About 10,000 cells in complete DMEM cell culture media were seeded per well. Assay plates were incubated at 37° C. with 5% CO2 for hours, followed by the assessment of IKZF1 or SALL4 degradation using the Nano-Glo HiBiT Lytic Detection Reagent (Cat #N3050, Promega) according to the manufacturer's instruction. Luminescence was then measured with an EnVision plate reader (PerkinElmer) or a PHERAstar plate reader (BMG Labtech). All IKZF1 or SALL4 degradation curves were processed using Collaborative Drug Discovery Vault softwares. IKZF1 or SALL4 levels in compound-treated wells were normalized to that of DMSO control and expressed as Percent of Control (PoC, y). A four Parameter Logistic Model was used to determine the compound's EC50 and DC50, using the following equation:
(§2) A=Ymin (lowest IKZF1 or SALL4 level normalized to DMSO control in response to compound treatment, as determined by curve fit)
(§3) B=Ymax (IKZF1 or SALL4 level in DMSO control)
(§4) C=EC50 half degradation concentration
(§5) EC50=the concentration of compound when y=(Ymax−Ymin)/2
(§6) DC50=test sample concentration when IKZF1 or SALL4 readings y=50% DMSO-treated samples
(§7) y=IKZF1 or SALL4 readings after test sample treatment (normalized to IKZF1 or SALL4 readings in DMSO-treated samples)
(§8) Dmax represents the maximum percentage of IKZF1 or SALL4 protein degradation induced by compound treatment.

HiBiT-tagged IKZF1 [1] = molecular target: T2, HiBiT-tagged IKZF1 (Homo sapiens, UniProt Q13422+Q96SW2); assay: Degradation assay for IKZF1 (HiBiT tag bioluminescence assay); conditions: HT-1080 IKZF1 HiBiT reporter cells; for DC50: read-out: HiBiT IKZF1: DC50
T2 construct: expressed in transfected cells; host or cells: HT-1080 (ATCC CCL-121), lentiviral transduction
Description: as §1, §2, §3, §4, §5, §6, §7, §8

HiBiT-tagged IKZF1 [2] = molecular target: T2, HiBiT-tagged IKZF1; assay: IKZF1 protein degradation kinetics (IKZF1 HiBiT degradation assay, incubation 1, 2 or 4 hours)
Excerpt: The following is a general method for testing compounds-induced degradation of HiBiT-tagged IKZF1 or SALL4 overexpressed in a human cell line, for example, the HT-1080 cell line (American Type Culture Collection (ATCC), catalog number CCL-121). The HT-1080 IKZF1 (or SALL4) HiBiT reporter cell line was engineered via lentiviral transduction to stably overexpress GSPT1 (Δ1-138)/G575N and HiBiT-tagged IKZF1 or SALL4. The HT-1080 IKZF1 (or SALL4) HiBiT reporter cell line was maintained in DMEM media supplemented with 10% fetal bovine serum, IX sodium pyruvate, 1× non-essential amino acids, IX glutamine, 100 U/ml penicillin, and 100 μg/mL streptomycin. The HT-1080 IKZF1 (or SALL4) HiBiT reporter cells were seeded into 384-well plates (Cat #3764, Corning) pre-spotted with DMSO or test compounds. Increasing concentrations of test compounds (ranging from 15.81 pM to 500 nM or from 0.3162 nM to 10 μM at a 3.162-fold increment) or DMSO were dispensed into an empty 384-well plate using an Echo 650 Acoustic Liquid Handler (Beckman Coulter). About 10,000 cells in complete DMEM cell culture media were seeded per well. Assay plates were incubated at 37° C. with 5% CO2 for hours, followed by the assessment of IKZF1 or SALL4 degradation using the Nano-Glo HiBiT Lytic Detection Reagent (Cat #N3050, Promega) according to the manufacturer's instruction. Luminescence was then measured with an EnVision plate reader (PerkinElmer) or a PHERAstar plate reader (BMG Labtech). All IKZF1 or SALL4 degradation curves were processed using Collaborative Drug Discovery Vault softwares. IKZF1 or SALL4 levels in compound-treated wells were normalized to that of DMSO control and expressed as Percent of Control (PoC, y). A four Parameter Logistic Model was used to determine the compound's EC50 and DC50, using the following equation: […]
The IKZF1 protein degradation kinetics of compounds 9-B and 9-A was evaluated using the IKZF1 HiBiT degradation assay as described above except that the incubation time was changed to 1, 2 or 4 hours.

MM.1S cells = assay: MM.1S cell proliferation assay (CellTiter-Glo); conditions: Homo sapiens, MM1.S, 120 h, read-out: MM.1S: IC50
Description: About 3,000 cells in 50 μL of culture medium were seeded per well. Assay plates were incubated at 37° C. with 5% CO2 for 120 hours. After that, 20 μL of the CellTiter-Glo Luminescent Cell Viability Assay Reagent (Cat #G7573, Promega) was added to each well and incubated at room temperature for 30 minutes. Luminescence was then measured with an EnVision plate reader (PerkinElmer) or a PHERAstar plate reader (BMG LABTECH). All percentage of cell growth inhibition curves were processed using Collaborative Drug Discovery Vault softwares. Cell viability reads in compound-treated wells were normalized to that of DMSO control and expressed as Percent of Control (PoC, y). A four Parameter Logistic Model was used to determine the compound's EC50 and DC50, using the following equation:
[formula] • wherein, • A=Ymin (lowest cell viability read normalized to DMSO control in response to compound treatment, as determined by curve fit) • B=Ymax (the maximum value, cell viability read in DMSO control) • C=EC50 half inhibitory concentration • D=Hill Slope • x=compound concentration
as §5
y=cell viability read normalized to DMSO control

[3] = HT-1080, Table 2, all compounds tested on the same day
[4] = Table 2, all compounds tested on the same day
[5] = HT-1080, Table 1, maximum percentage of protein degradation
[6] = Table 1, performed once with technical duplicates, some compounds tested on different days
[7] = after 1 hour of compound incubation
[8] = Table 1, maximum percentage of protein degradation

T2 sequence (Q13422 whole entry): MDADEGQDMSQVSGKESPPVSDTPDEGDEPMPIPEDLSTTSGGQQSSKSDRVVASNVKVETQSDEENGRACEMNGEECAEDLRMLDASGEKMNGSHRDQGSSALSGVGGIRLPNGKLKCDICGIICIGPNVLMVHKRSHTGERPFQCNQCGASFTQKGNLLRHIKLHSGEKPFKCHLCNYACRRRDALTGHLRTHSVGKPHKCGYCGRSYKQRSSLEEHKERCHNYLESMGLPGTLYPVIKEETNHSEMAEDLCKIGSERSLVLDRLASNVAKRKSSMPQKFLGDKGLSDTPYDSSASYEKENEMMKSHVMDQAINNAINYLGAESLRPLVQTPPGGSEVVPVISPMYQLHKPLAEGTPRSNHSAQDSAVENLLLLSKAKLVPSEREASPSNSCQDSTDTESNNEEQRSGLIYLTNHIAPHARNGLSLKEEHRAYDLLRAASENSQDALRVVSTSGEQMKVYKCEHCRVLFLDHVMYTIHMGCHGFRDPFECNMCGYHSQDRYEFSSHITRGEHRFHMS
T2 sequence (Q96SW2 whole entry): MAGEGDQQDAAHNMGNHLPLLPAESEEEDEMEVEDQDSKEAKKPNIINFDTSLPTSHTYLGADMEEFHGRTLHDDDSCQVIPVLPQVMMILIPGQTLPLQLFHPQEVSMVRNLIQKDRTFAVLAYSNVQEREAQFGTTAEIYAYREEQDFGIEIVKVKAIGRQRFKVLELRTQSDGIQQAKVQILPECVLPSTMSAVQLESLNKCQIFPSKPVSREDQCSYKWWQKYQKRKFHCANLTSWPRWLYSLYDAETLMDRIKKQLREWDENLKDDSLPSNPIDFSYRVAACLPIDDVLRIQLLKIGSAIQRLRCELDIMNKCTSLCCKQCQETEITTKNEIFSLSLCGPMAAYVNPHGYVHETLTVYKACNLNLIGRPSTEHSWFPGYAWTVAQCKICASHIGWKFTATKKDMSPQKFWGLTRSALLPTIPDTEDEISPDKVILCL
T2 sequence (Q16531 whole entry partner): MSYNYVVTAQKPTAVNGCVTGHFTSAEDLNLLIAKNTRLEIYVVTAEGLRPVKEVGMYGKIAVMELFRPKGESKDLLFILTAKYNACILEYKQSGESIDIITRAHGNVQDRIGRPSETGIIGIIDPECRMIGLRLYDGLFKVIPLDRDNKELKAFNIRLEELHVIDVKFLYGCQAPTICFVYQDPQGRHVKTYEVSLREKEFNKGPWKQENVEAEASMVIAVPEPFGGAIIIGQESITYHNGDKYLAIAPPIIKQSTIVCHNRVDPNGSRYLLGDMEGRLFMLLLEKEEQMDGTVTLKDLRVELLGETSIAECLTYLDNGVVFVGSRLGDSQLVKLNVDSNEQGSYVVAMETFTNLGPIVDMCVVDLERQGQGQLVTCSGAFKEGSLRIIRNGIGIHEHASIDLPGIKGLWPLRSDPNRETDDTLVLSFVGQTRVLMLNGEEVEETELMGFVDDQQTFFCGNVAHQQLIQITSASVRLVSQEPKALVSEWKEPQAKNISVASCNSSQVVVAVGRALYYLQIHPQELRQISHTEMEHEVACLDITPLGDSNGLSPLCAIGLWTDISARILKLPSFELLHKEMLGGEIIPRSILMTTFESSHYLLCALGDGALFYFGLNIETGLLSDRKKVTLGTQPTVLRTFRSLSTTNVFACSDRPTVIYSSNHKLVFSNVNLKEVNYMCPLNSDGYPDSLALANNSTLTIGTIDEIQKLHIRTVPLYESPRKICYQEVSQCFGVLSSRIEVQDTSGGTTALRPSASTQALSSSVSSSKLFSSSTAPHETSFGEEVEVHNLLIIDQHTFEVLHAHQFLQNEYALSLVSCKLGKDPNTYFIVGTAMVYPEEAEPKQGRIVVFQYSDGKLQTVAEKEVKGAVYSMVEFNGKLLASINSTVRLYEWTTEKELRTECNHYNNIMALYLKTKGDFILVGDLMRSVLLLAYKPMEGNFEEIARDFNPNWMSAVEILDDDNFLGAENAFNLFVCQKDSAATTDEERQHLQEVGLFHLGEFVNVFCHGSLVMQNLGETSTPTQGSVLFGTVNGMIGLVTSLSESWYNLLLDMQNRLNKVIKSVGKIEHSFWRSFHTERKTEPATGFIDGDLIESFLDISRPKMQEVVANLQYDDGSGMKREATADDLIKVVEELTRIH
T1 sequence (Q9UJQ4 whole entry): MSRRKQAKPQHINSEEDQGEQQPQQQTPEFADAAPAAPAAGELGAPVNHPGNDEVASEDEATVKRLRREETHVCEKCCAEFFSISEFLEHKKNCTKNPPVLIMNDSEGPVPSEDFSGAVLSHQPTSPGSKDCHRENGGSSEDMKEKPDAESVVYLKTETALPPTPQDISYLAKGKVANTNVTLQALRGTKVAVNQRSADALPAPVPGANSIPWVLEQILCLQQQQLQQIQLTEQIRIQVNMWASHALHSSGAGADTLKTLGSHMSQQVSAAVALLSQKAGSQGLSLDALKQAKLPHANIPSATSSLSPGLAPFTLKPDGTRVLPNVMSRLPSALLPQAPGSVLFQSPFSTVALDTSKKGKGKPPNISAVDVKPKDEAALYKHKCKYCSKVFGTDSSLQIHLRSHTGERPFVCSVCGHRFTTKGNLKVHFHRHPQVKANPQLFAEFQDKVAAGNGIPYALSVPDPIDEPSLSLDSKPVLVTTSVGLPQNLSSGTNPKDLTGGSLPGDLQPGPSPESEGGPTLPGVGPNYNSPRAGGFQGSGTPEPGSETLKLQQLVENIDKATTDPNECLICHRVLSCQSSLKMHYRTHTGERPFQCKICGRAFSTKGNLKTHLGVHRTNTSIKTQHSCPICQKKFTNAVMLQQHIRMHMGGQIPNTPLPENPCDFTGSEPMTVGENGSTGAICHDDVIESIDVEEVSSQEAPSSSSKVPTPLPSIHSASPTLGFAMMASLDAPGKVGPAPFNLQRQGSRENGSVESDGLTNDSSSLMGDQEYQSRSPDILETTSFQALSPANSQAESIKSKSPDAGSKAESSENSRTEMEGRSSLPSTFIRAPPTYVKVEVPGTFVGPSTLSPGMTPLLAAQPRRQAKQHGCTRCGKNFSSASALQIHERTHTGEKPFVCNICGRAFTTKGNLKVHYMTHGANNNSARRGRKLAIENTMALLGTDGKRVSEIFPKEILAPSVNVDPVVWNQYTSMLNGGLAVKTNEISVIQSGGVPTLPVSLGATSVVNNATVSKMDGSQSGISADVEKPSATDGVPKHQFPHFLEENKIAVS
T1 sequence (Q96SW2 whole entry): as the sequence (Q96SW2 whole entry) above
T1 sequence (Q16531 whole entry partner): as the sequence (Q16531 whole entry partner) above

| Dmax (HiBiT-tagged SALL4; [3]) | DC50 (HiBiT-tagged SALL4; [4]) | Dmax (HiBiT-tagged IKZF1 [1]; [3]) | DC50 (HiBiT-tagged IKZF1 [1]; [4]) | Dmax (HiBiT-tagged SALL4; [5]) | DC50 (HiBiT-tagged SALL4; [6]) | Dmax (HiBiT-tagged IKZF1 [1]; [5]) | DC50 (HiBiT-tagged IKZF1 [1]; [6]) | Compound | also measured |
| --- | --- | --- | --- | --- | --- | --- | --- | --- | --- |
| – | – | – | – | 34.9% | > 10000 nM | 75.2% | 2.37 nM | O=C1CCC(N2C(=O)c3cc(F)cc4c(Cc5ccc(CN6CCOCC6)cc5F)ccc2c34)C(=O)N1 (stereo not shown) [Compound 8] | – |
| – | – | – | – | 32.5% | > 10000 nM | 69.3% | 5.89 nM | O=C1CCC(N2C(=O)c3cc(F)cc4c(Cc5ccc(CN6CCOCC6)cc5)ccc2c34)C(=O)N1 (stereo not shown) [Compound 12] | – |
| 79.3% | 2 nM | 89.9% | 1 nM | – | – | – | – | N#Cc1ccc(N2CCN(Cc3ccc(Cc4ccc5c6c(ccc(F)c46)C(=O)N5C4CCC(=O)NC4=O)cc3)CC2)c(F)c1 (stereo not shown) [Compound 14] | – |
| – | – | – | – | 68% | 2.4 nM | 93.3% | 0.038 nM | N#Cc1ccc2c(c1)OC[C@H]1CN(Cc3ccc(Cc4ccc5c6c(cccc46)C(=O)N5C4CCC(=O)NC4=O)cc3)CCN21 (stereo partly shown) [Compound 3] | – |
| 64.6% | 5.2 nM | 93.5% | 0.157 nM | – | – | – | – | O=C1CCC(N2C(=O)c3cccc4c(Cc5ccc(CN6CCOCC6)cc5)ccc2c34)C(=O)N1 (stereo not shown) [Compound 19] | – |
| 28.5% | > 10000 nM | 60.1% | 39.1 nM | – | – | – | – | N#Cc1ccc(N2CCN(Cc3ccc(Cc4ccc5c6c(c(F)ccc46)C(=O)N5C4CCC(=O)NC4=O)cc3)CC2)c(F)c1 (stereo not shown) [Compound 15] | – |
| – | – | – | – | 68.6% | 1 nM | 93.5% | 0.026 nM | N#Cc1cnc2c(c1)OC[C@H]1CN(Cc3ccc(Cc4ccc5c6c(cccc46)C(=O)N5C4CCC(=O)NC4=O)c(F)c3)CCN21 (stereo partly shown) [Compound 4] | – |
| – | – | – | – | – | 2 nM | – | 0.017 nM | N#Cc1ccc2c(c1)OC[C@H]1CN(Cc3ccc(Cc4ccc5c6c(cccc46)C(=O)N5C4CCC(=O)NC4=O)cc3)CCN21 (stereo partly shown) [Compound 5] | HiBiT SALL4: Dmax (HiBiT-tagged SALL4; [8]): 76.5%; HiBiT IKZF1: Dmax (HiBiT-tagged IKZF1 [1]; [8]): 94.1% |

The remaining lines, values behind:

| Compound | Dmax (HiBiT-tagged SALL4; [3]) | DC50 (HiBiT-tagged SALL4; [4]) | Dmax (HiBiT-tagged IKZF1 [1]; [3]) | DC50 (HiBiT-tagged IKZF1 [1]; [4]) | Dmax (HiBiT-tagged SALL4; [5]) | DC50 (HiBiT-tagged SALL4; [6]) | Dmax (HiBiT-tagged IKZF1 [1]; [5]) | DC50 (HiBiT-tagged IKZF1 [1]; [6]) | also measured |
| --- | --- | --- | --- | --- | --- | --- | --- | --- | --- |
| N#Cc1ccc(N2CCN(Cc3ccc(Cc4ccc5c6c(cc(Br)cc46)C(=O)N5C4CCC(=O)NC4=O)cc3)CC2)c(F)c1 (stereo not shown) [Compound 16] | 65.8% | 772 nM | 92.2% | 1.23 nM | – | – | – | – | – |
| N#Cc1ccc(N2CCN(Cc3ccc(Cc4ccc5c6c(cc(F)cc46)C(=O)N5[C@@H]4CCC(=O)NC4=O)cc3)CC2)c(F)c1 (single isomer, unassigned) [Compound 9-A] | 57% | 292 nM | 93.1% | 0.185 nM | 55.2% | 328 nM | 89.9% | 0.23 nM | DC50 (HiBiT-tagged IKZF1 [2]; [7]): ~8 nM; Dmax (HiBiT-tagged IKZF1 [2]; [7]): ~68%; DC50 (HiBiT-tagged IKZF1 [2]; after 4 hours of incubation): 0.6 nM; Dmax (HiBiT-tagged IKZF1 [2]; after 4 hours of incubation): 88% |
| N#Cc1ccc2c(c1)OC[C@H]1CN(Cc3ccc(Cc4ccc5c6c(cc(F)cc46)C(=O)N5C4CCC(=O)NC4=O)cn3)CCN21 (stereo partly shown) [Compound 2] | – | – | – | – | 53.2% | 400 nM | 91.8% | 0.022 nM | – |
| N#Cc1ccc(N2CCN(Cc3ccc(Cc4ccc5c6c(cc(Cl)cc46)C(=O)N5C4CCC(=O)NC4=O)cc3)CC2)c(F)c1 (stereo not shown) [Compound 17] | 11.4% | > 10000 nM | 41.1% | > 10 nM | – | – | – | – | – |
| Nc1cccc2c1C(=O)N(C1CCC(=O)NC1=O)C2=O (stereo not shown) [Pomalidomide] | – | – | – | – | – | – | – | – | Dmax (HiBiT-tagged SALL4; [8]): 69.7%; Dmax (HiBiT-tagged IKZF1 [1]; [8]): 79.5%; IC50 (MM.1S cells): > 30 nM |
| N#Cc1ccc2c(c1)OC[C@H]1CN(Cc3ccc(Cc4ccc5c6c(cc(F)cc46)C(=O)N5C4CCC(=O)NC4=O)cc3)CCN21 (stereo partly shown) [Compound 1] | – | – | – | – | 57.4% | 117 nM | 93.2% | 0.025 nM | – |
| N#Cc1ccc(N2CCN(Cc3ccc(Cc4ccc5c6c(cccc46)C(=O)N5C4CCC(=O)NC4=O)c(F)c3)CC2)c(F)c1 (stereo not shown) [Compound 18] | 80.5% | < 0.3 nM | 96.1% | 0.014 nM | – | – | – | – | – |
| CC(C)(C)N1CCN(Cc2ccc(Cc3ccc4c5c(cc(F)cc35)C(=O)N4C3CCC(=O)NC3=O)c(F)c2)CC1 (stereo not shown) [Compound 13] | – | – | – | – | 49.1% | > 10000 nM | 87.3% | 1.22 nM | – |
| N#Cc1cnc2c(c1)OC[C@H]1CN(Cc3ccc(Cc4ccc5c6c(cc(F)cc46)C(=O)N5C4CCC(=O)NC4=O)c(F)c3)CCN21 (stereo partly shown) [Compound 10] | – | – | – | – | 29.4% | > 10000 nM | 88.3% | 0.065 nM | – |
| O=C1CCC(N2C(=O)c3cc(F)cc4c(Cc5ccc(CN6CCC(N7CCOCC7)CC6)cc5F)ccc2c34)C(=O)N1 (stereo not shown) [Compound 11] | – | – | – | – | 33.9% | > 10000 nM | 66.2% | 2.19 nM | – |
| N#Cc1ccc(N2CCN(Cc3ccc(Cc4ccc5c6c(cccc46)C(=O)N5C4CCC(=O)NC4=O)cc3)CC2)c(F)c1 (stereo not shown) [Compound 20] | 79.3% | < 0.3 nM | 96.9% | 0.014 nM | – | – | – | – | – |
| O=C1CCC(N2C(=O)c3cc(F)cc4c(Cc5ccc(CN6CC(N7CCOCC7)C6)cc5F)ccc2c34)C(=O)N1 (stereo not shown) [Compound 6] | – | – | – | – | 33.7% | > 10000 nM | 74.6% | 0.74 nM | – |
| O=C1CCC(N2C(=O)c3cc(F)cc4c(Cc5ccc(CN6CCC7(CCCO7)CC6)cc5F)ccc2c34)C(=O)N1 (stereo not shown) [Compound 7] | – | – | – | – | 45.4% | > 10000 nM | 86.3% | 0.13 nM | – |
